Laboratory results taken from the supplement of paper PMC13380429.
± gives the standard deviation of the averaged measurements.

How the values were obtained:
Conditions in all cases: 72 h
[1] = test system: Caco-2; experiment: cell viability relative to DMSO; higher = less toxic
[2] = test system: HepG2; experiment: as above
[3] = test system: U2OS; experiment: as above
[4] = test system: Calu-3; experiment: as above
[5] = test system: Vero E6; experiment: as above
[6] = test system: Caco-2; experiment: relative viability EC50 (midpoint between 100% and the lowest measured viability); higher = less toxic
[7] = test system: HepG2; experiment: as above
[8] = test system: U2OS; experiment: as above
[9] = test system: Calu-3; experiment: as above
[10] = test system: Vero E6; experiment: as above
[11] = test system: Caco-2; experiment: drug sensitivity score (DSS) for viability; higher = more toxic; extreme values may be limits of the assay
[12] = test system: HepG2; experiment: as above
[13] = test system: U2OS; experiment: as above
[14] = test system: Calu-3; experiment: as above
[15] = test system: Vero E6; experiment: as above

SMILES	cell viability ([1]; 1 nM) [%]	cell viability ([1]; 10 nM) [%]	cell viability ([1]; 100 nM) [%]	cell viability ([1]; 1000 nM) [%]	cell viability ([1]; 10000 nM) [%]	cell viability ([2]; 1 nM) [%]	cell viability ([2]; 10 nM) [%]	cell viability ([2]; 100 nM) [%]	cell viability ([2]; 1000 nM) [%]	cell viability ([2]; 10000 nM) [%]	cell viability ([3]; 1 nM) [%]	cell viability ([3]; 10 nM) [%]	cell viability ([3]; 100 nM) [%]	cell viability ([3]; 1000 nM) [%]	cell viability ([3]; 10000 nM) [%]	cell viability ([4]; 1 nM) [%]	cell viability ([4]; 10 nM) [%]	cell viability ([4]; 100 nM) [%]	cell viability ([4]; 1000 nM) [%]	cell viability ([4]; 10000 nM) [%]	cell viability ([5]; 1 nM) [%]	cell viability ([5]; 10 nM) [%]	cell viability ([5]; 100 nM) [%]	cell viability ([5]; 1000 nM) [%]	cell viability ([5]; 10000 nM) [%]	relative viability EC50 [6] [µM]	relative viability EC50 [7] [µM]	relative viability EC50 [8] [µM]	relative viability EC50 [9] [µM]	relative viability EC50 [10] [µM]	drug sensitivity score [11]	drug sensitivity score [12]	drug sensitivity score [13]	drug sensitivity score [14]	drug sensitivity score [15]
Nc1c(CC(=O)O)cccc1C(=O)c1ccc(Br)cc1 [bromfenac]	88.1	94.3	93.4	95.7	101	96.3	97.4	97.2	104	104	100	98.6	103	99.4	96	95.7	97	104	84.2	97.7	95.4	103	98.1	97.3	105	> 10	> 10	> 10	> 10	> 10	0	0	0	0	0
CCCCOC(=O)c1ccc(N)cc1 [butamben]	108	94	95.6	90.9	97.5	104	93.6	124	112	124	98.7	96.5	102	94.9	103	98.6	96.7	94.2	93.7	94.1	94.2	102	96.3	92.8	82.3	> 10	> 10	> 10	> 10	> 10	0	0	0	0	0.7
CC[C@H](C)C[C@H](C)CCCCCCCCC(=O)N[C@H]1C[C@@H](O)[C@@H](NCCN)NC(=O)[C@@H]2[C@@H](O)CCN2C(=O)[C@H]([C@H](O)CCN)NC(=O)[C@H]([C@H](O)[C@@H](O)c2ccc(O)cc2)NC(=O)[C@@H]2C[C@@H](O)CN2C(=O)[C@H]([C@@H](C)O)NC1=O [caspofungin]	88.2 ± 4.6	96.5 ± 3	115 ± 24	90.2 ± 18	95 ± 1.3	91.8	106	110	116	103	95.2 ± 2.2	95.6 ± 0.14	98 ± 1.3	98.2 ± 6.6	99 ± 1.6	104 ± 13	104 ± 14	104 ± 1.4	96.5 ± 5.9	89.5 ± 0.85	98.1 ± 1.8	99 ± 3.3	98.85 ± 0.64	95.1 ± 1.6	101 ± 7.1	> 10	> 10	> 10	> 10	> 10	1.35 ± 1.9	0	0	0.1 ± 0.14	0
CC1=C(C(=O)O)N2C(=O)[C@@H](NC(=O)[C@H](N)c3ccc(O)cc3)[C@H]2SC1 [cefadroxil]	92.8	93.5	93.1	85.7	99.1	90.4	101	95.6	103	105	101	96.2	99.4	97	103	100	99.1	107	93.2	106	89.4	101	91.8	98.1	104	> 10	> 10	> 10	> 10	> 10	0	0	0	0	0
